# According to article PMC10787880, “Structural and functional characterization of a new thermophilic-like OYE from Aspergillus flavus” (Applied Microbiology and Biotechnology, 2024):
# Biological target: T1, AfOYE1 (Aspergillus flavus, UniProt B8N8Q9)
# T1 construct: gene afvA; codon-optimised gene in pET28b, E. coli BL21(DE3); N-terminal His6-TEV tag, cut by TEV protease; about 43 kDa; dimer in the crystal; non-covalent FMN
# Experiment: X-ray crystal structure […] Å; UV-visible spectrum of released flavin
# Type: binding
# Conditions: non-covalent prosthetic group, active site; chloride and ethylene glycol also in site
# T1 sequence (B8N8Q9 whole entry): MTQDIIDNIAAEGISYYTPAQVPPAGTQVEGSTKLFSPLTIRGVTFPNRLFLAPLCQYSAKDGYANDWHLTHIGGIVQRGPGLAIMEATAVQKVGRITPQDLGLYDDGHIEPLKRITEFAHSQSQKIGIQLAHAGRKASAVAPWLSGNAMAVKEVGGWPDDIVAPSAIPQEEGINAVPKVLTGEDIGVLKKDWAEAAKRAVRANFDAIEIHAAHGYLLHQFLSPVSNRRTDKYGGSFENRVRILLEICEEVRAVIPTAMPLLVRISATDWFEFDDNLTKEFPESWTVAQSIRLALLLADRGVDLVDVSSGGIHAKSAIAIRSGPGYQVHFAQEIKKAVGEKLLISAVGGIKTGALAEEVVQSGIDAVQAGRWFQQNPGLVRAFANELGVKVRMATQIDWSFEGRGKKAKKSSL
smiles,measurement,value
Cc1cc2nc3c(=O)[nH]c(=O)nc-3n(C[C@H](O)[C@H](O)[C@H](O)COP(=O)(O)O)c2cc1C [FMN],X-ray crystal structure 1.55 Å; UV-visible spectrum of released flavin,On the top of the β-barrel core of each monomer encircles one FMN cofactor
